Earlier results, collected in patent US20200281963A1, “HYDROGEN MOLECULE-CONTAINING PROPHYLACTIC OR THERAPEUTIC AGENT FOR OXIDATIVE DAMAGE IN INTRAOCULAR SURGERIES” (priority 2016, published 2020).

For `[HH]` [hydrogen molecules], the “amount of hydrogen molecules that can be dissolved” value (in 1 L of water at 25° C. at 1 atm) is listed as 17.5 mL and the “amount of hydrogen molecules that can be dissolved (concentration)” value (water at 25° C. at 1 atm) is listed as “approximately 0.8 mM”.
